Test results: US12104143B2, “Compositions comprising cellulase with a nonionic surfactant and a quaternary ammonium compound” (ECOLAB USA INC., priority 2018, dated 2024)

How the values were obtained:
[1] = system: dark eyed fruit flies (DEFF); test: Adult fly emergence test, dark eyed fruit flies (DEFF); format: in vivo; settings: 1.8% sodium citrate, pH about 4.5; 1% active Bardac 205M, 0.5% Cellulase B or 2% Tween 20 (Test Comp. C, B, A)
Procedure: Tests were performed to assess the cleaning compositions' effectiveness against insects. Small flies, which are common near clogged drains for beverage towers were used for these tests. Carolina Biological Formula 2-24 Instant Drosophila Medium was mixed with water in equal parts liquid to media by volume. A small pinch of active yeast was also added. The media was allowed to sit for two days before the start of the test, allowing the yeast time to ferment and ensure there will be enough food available for fly larvae when introduced in the media. Ten larvae of each fly species are placed into the fruit fly vials containing media two days after starting the media. The age of the larvae varies, but the majority of the larvae in each vial were mid instars larvae. Mature larvae were avoided to prevent pupation before the product is added. Each treatment had 5 replicates, for a total of 50 larvae of each species per treatment. Larvae were collected from the media of existing fly rearing containers. Emergence of adult flies was recorded at one week, two weeks, and three weeks to determine how many of the […] larvae had completed development and emerged as adults. The test was maintained at 80° F. and ambient humidity. Tween 20 was tested as an exemplary nonionic surfactant. DRAIN EASE FLOW from Novozymes was tested as an exemplary enzyme composition. […]

[2] = system: cellulase activity; test: Shelf life stability by enzyme activity assay, incubated at 37° C. over 8 weeks (Examples 8-10); format: physicochemical; settings: for remaining cellulase activity: 4 weeks at 37° C.
Procedure: The impact of pH on shelf life stability was examined. […] The compositions were adjusted to a pH of 4.00, 4.25, and 4.50. Enzyme stability was assessed by an activity assay.
The compositions were adjusted to a pH of 4.25. Two control compositions were also prepared, one without a surfactant and one with the anionic surfactant, […] (SLS), as a negative control. Enzyme stability was assessed by an activity assay. […] The control containing no surfactant approached 0% remaining activity after the 8-week period.
Different stabilizers—glycerol and PEG 200—were tested to assess their effect on shelf life stability of formulations including a quaternary amine. […] The compositions were adjusted to a pH of 4.25. Enzyme stability was assessed by an activity enzyme. A control composition was also prepared having no stabilizer.

[3] = system: DRAIN EASE FLOW activity; test: Enzyme stability: retained DRAIN EASE FLOW activity in degrading a sugar snake after incubation at 37° C. (Example 6); format: physicochemical; settings: 20% stabilizer, 1.0% active Bardac 205M, pH about 4.5
Procedure: Enzyme stability was tested in cleaning compositions prepared with differing stabilizers. […] The effect of pH on stability was also assessed by testing compositions at a pH of 4.5 and 5.5. […] Enzyme stability was again assessed by an activity assay. […] This increased stability is even more pronounced when formulated with 1% active Bardac […].

[4] = Cellulase catalyzed hydrolysis of bacterial cellulose (sugar snake degradation) with stabilizers (Example 7); format: biochemical; settings: 10% stabilizer; 0.5 wt. % DRAIN EASE FLOW, 2 wt. % Tween 20, 0.1 wt. % Bardac 205M, pH about 4.0; 20 mL/g, 2 hours
Procedure: The stabilizers tested were PEG 200, Glycerol, Propylene Glycol, and Sucrose. A composition was also prepared without a stabilizer. All the compositions were prepared in water at a pH of about 4.0. A piece of sugar snake weighing about 5 grams was used to screen enzyme performance. The chemistry was dosed at 20 mL/g sugar snake and incubated for 2 hours. The relative enzyme performance was determined at each concentration by comparing the performance to control formulations lacking stabilizer. The results are provided in FIG. 11 where 40 indicates 40% degradation.

Compound: CCCCCCCCCCCC(=O)OCCOCCOCCOCCOCCOCCOCCOCCOCCOCCOCCOCCOCCOCCOCCOCCOCCOCCOCCOCCOCC(OCCOCCOCCOCCOCCOCCOCCOCCOCCOCCOCCOCCOCCOCCOCCOCCOCCOCCOCCOCCO)C1OCC(OCCOCCOCCOCCOCCOCCOCCOCCOCCOCCOCCOCCOCCOCCOCCOCCOCCOCCOCCOCCO)C1OCCOCCOCCOCCOCCOCCOCCOCCOCCOCCOCCOCCOCCOCCOCCOCCOCCOCCOCCOCCO (stereo not drawn) [Tween 20, polyethylene glycol sorbitan monolaurate]
- adult DEFF emergence relative to the water and buffer only controls [1]: not statistically significant
- residual activity after 8 weeks ([2]; 2 wt. % surfactant (or none), 0.2 wt. % Bardac 205M, 10 wt. % PEG 200, 0.5 wt. % DRAIN EASE FLOW, pH 4.25, 37° C.): 55%
- shelf stability ranking among surfactants ([2]; 2 wt. % surfactant, 0.2 wt. % Bardac 205M, 10 wt. % PEG 200, pH 4.25, 37° C., 8 weeks): best stability

Compound: OCC(O)CO [glycerol]
- enzyme stability relative to control formulations lacking stabilizer [3]: enhanced stability
- remaining cellulase activity ([2]; 10% stabilizer, both quaternary amine concentrations (175 ppm and 1000 ppm), pH 4.25): > 95%
- shelf life stability ranking among stabilizers ([2]; 10 wt. % stabilizer or none, 175 ppm or 1000 ppm Bardac 205M, pH 4.25, 37° C.): best stability

Compound: polyethylene glycol 200 [PEG 200]
- enzyme stability relative to control formulations lacking stabilizer [3]: enhanced stability
- remaining cellulase activity ([2]; 10% stabilizer, 175 ppm quaternary amine, pH 4.25): > 40%
- shelf life stability ([2]; 10% stabilizer, 1000 ppm quaternary, pH 4.25, 37° C.): enhanced stability

Compound: OC[C@H]1O[C@@](CO)(O[C@H]2O[C@H](CO)[C@@H](O)[C@H](O)[C@H]2O)[C@@H](O)[C@@H]1O [sucrose]
- sugar snake degradation performance versus control formulations lacking stabilizer [4]: did not statistically impact performance

Compound: polyethylene glycol 400 [PEG 400]
- enzyme stability relative to control formulations lacking stabilizer [3]: did not enhance stability

Compound: CC(O)CO (stereo not drawn) [propylene glycol]
- enzyme stability relative to control formulations lacking stabilizer [3]: did not enhance stability
